Assay results reported in ChEMBL document CHEMBL3638626, “1,3,5-triazine-2-amine derivatives, preparation thereof and diagnostic and therapeutic use thereof” (2015).
pIC50: −log10 of the molar value.

target: Cannabinoid receptor 2 (Homo sapiens, UniProt P34972); assay: Binding Assay: Affinity binding tests were performed according to the experimental conditions described by M. Rinaldi-Carmona in J. Pharmacol. Exp. Therap. 1998, 287, 644-650, with membranes derived either from rodent tissues or from recombinant cell lines in which the human CB2 receptors were expressed (Munro et al., Nature 1993, 365, 61-65). The affinity of the compounds is expressed in the form of the IC50 (concentration causing 50% inhibition of specific binding of the tritiated ligand used in vitro).
Sequence (P34972 whole entry): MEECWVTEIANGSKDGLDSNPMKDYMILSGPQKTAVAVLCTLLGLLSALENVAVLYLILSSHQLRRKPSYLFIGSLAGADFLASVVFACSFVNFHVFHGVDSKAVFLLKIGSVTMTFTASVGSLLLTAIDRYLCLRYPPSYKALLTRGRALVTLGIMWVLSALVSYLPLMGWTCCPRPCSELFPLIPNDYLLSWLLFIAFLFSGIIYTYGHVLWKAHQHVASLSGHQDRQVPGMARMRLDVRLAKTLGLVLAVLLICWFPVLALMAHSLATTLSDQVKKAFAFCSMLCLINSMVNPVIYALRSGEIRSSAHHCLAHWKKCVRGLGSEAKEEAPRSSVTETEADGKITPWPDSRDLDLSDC

| Compound | pIC50 |
| --- | --- |
| COc1nc(NCCc2ccc(F)cc2)nc(-c2ccc(OC)c(C(C)(C)O)c2)n1 | 9.00 |
| COc1nc(NCCc2ccc(OC(F)F)cc2)nc(-c2ccc(Cl)c(OCCCNS(C)(=O)=O)c2)n1 | 7.39 |
| COc1nc(NCCc2ccc(F)cc2)nc(-c2ccc(Cl)c(O)c2)n1 | 7.68 |
| COc1nc(NCCc2ccc(OCF)cc2)nc(-c2ccc(Cl)c(C(C)(C)O)c2)n1 | 8.41 |
| COc1nc(NCCc2ccc(OC(F)F)cc2)nc(-c2ccc(Cl)c(C(C)(C)O)c2)n1 | 8.92 |
| CCOC(=O)COc1cc(-c2nc(NCCc3ccc(F)cc3)nc(OC)n2)ccc1Cl | 8.00 |
| COc1nc(NCCc2ccc(F)cc2)nc(-c2ccc(OC)c(S(=O)(=O)NC3CC3)c2)n1 | 7.92 |

Now from value to molecule:

| pIC50 | Compound |
| --- | --- |
| 7.92 | COc1nc(NCCc2ccc(F)cc2)nc(-c2cc3cc(F)ccc3[nH]2)n1 |
| 8.05 | COc1nc(NCCc2ccc(F)cc2)nc(-c2cccc(C(C)(C)O)c2)n1 |
| 8.15 | COc1nc(NCCc2ccc(F)cc2)nc(-c2cc3c(Cl)cccc3[nH]2)n1 |
| 7.54 | COc1cccc(-c2nc(NCCc3ccc(F)cc3)nc(OC)n2)c1 |
| 9.00 | COc1nc(NCCc2ccc(F)cc2)nc(-c2ccc(Cl)c(OCC(N)=O)c2)n1 |
